# Assay results from US7560471B2, “Indolylpiperidine derivatives as potent antihistaminic and antiallergic agents” (Laboratorios Almirall S.A., priority 2002, dated 2009).
# What was measured:
# histamine-H1 receptors = histamine-H1 receptors (Cavia porcellus, UniProt P31389); test: Histamine-H1 receptor binding assay ([3H]-mepyramine); settings: guinea pig cerebellum membranes, 0.7 nM [3H]-mepyramine
# Protocol: (§1) (1) Histamine-H1 Receptor Binding Assay
# The study of binding to histamine-H1 receptors was performed in guinea pig cerebellum membranes as described by Chang et al., J. Neurochem, 1979, 32, 1653-1663. Briefly, the membrane suspensions (160 μg/ml) were incubated at 30° C. with 0.7 nM [^3H]-mepyramine and different concentrations of the test compounds in a final volume of 250 μl. Binding reactions were terminated by filtration after 30 min of incubation and the bound radioactivity was determined. The non-specific binding was measured in the presence of 10 μM of promethazine. The affinity of each test compound to the receptor was determined by using at least six different concentrations run in duplicate. IC50 values were obtained by non-linear regression by use of SAS on a DEC AXP computer.
# serotonin-5HT2 receptors = molecular target: T1, serotonin-5HT2 receptors (Homo sapiens, UniProt P28223); test: Serotonin-5HT2 receptor binding assay (3H-Ketanserin); settings: human frontal cerebral cortex membranes, 1 nM 3H-Ketanserin; read-out: 5HT-2
# T1 construct: performed in human frontal cerebral cortex membranes; from tissue; host or cells: human frontal cerebral cortex membranes
# T1 sequence (P28223 whole entry): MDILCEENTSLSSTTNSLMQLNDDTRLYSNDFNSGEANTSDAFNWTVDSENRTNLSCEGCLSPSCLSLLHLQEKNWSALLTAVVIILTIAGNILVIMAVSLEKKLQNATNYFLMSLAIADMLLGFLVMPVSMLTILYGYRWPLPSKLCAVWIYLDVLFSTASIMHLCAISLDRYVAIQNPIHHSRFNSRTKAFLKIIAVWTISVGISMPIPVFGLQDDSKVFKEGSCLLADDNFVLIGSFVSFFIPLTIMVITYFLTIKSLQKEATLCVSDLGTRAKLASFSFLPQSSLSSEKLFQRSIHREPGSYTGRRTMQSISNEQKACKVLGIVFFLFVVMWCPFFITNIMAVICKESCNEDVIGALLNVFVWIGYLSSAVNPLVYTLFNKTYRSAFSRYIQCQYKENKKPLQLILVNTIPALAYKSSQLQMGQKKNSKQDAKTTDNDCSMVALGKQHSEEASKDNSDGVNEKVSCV
# Protocol: as §1
# (3) Serotonin-5HT2 Receptor Binding Assay
# The study of binding to serotonin-5HT2 receptors was performed in human frontal cerebral cortex membranes as described previously (Pazos et al., Eur. J. of Pharmacol, 1985, 106, 531-538). Briefly, the membrane suspensions (170 μg/ml) were incubated at 37° C. with 1 nM 3H-Ketanserin and different concentrations of the test compounds in a final volume of 250 μl. Binding reactions were terminated by filtration after 30 minutes of incubation under constant shaking and the bound radioactivity was measured. The non-specific binding was estimated in the presence of 10 μM mianserin. The affinity of each test compound to the receptor was determined by using at least six different concentrations run in duplicate. IC50 values were calculated by non-linear regression using SAS.
# [1] = tested on: histamine-induced papule (skin vascular permeability); test: Histamine-induced skin vascular permeability in rats; assay type: in vivo, rat; settings: male Wistar rats, oral, 4 h after administration, inhibition of papule area vs vehicle
# Protocol: as §1
# (2) Histamine-Induced Skin Vascular Permeability in Rats
# Male Wistar rats (180-210 g) were treated orally with the test compound or vehicle. Either one, four, eight or 24 hours later the rats were lightly anaesthetised with ether and a cutaneous reaction was induced by two intradermal injections of 50 μl of histamine (100 μg/ml) onto the back, followed by an intravenous injection of 3 ml/kg of Evan's Blue (5 mg/ml), both dissolved in saline. Sixty minutes later, the rats were killed by cervical dislocation and the back skin dissected free. The diameter (in millimetres) of the papule was measured in two directions and the area was calculated. Results are given as the % of inhibition at a given dose compared with the vehicle treated group.
# Chain of histamine-H1 receptors (P31389 whole entry): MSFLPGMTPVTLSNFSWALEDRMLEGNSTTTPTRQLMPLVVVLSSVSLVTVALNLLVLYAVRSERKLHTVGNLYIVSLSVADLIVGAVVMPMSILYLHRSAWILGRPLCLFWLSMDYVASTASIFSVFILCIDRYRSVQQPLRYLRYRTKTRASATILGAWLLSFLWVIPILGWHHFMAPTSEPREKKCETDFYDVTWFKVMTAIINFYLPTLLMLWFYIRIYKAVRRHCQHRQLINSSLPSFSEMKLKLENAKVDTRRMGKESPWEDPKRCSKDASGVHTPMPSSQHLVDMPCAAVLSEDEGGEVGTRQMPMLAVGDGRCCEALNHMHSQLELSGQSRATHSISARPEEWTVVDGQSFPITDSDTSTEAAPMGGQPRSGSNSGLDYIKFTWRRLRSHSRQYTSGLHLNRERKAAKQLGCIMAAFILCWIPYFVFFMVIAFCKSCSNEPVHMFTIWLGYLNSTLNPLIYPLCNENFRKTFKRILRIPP
compound,measurement,setting,value
"CCOCCn1cc(C2CCN(Cc3ccc(OC)c(C(=O)O)c3)CC2)c2ccccc21 [Example 1, 5-{4-[1-(2-ethoxyethyl)-1H-indol-3-yl]piperidin-1-ylmethyl}-2-methoxybenzoic acid]",IC50,histamine-H1 receptors,145 nM
same,IC50,serotonin-5HT2 receptors,5350 nM
same,papule (4h) % inh a 1 mg/Kg,[1],88%
"COCCn1cc(C2CCN(Cc3ccc(OC)c(C(=O)O)c3)CC2)c2ccccc21 [Example 2, 2-methoxy-5-{4-[1-(2-methoxyethyl)-1H-indol-3-yl]piperidin-1-ylmethyl}benzoic acid]",IC50,histamine-H1 receptors,470 nM
same,IC50,serotonin-5HT2 receptors,> 10000 nM
same,papule (4h) % inh a 1 mg/Kg,[1],96%
"CCCCn1cc(C2CCN(Cc3ccc(OC)c(C(=O)O)c3)CC2)c2ccccc21 [Example 3, 5-[4-(1-butyl-1H-indol-3-yl)-piperidin-1-ylmethyl]-2-methoxybenzoic acid]",IC50,histamine-H1 receptors,130 nM
same,IC50,serotonin-5HT2 receptors,4500 nM
same,papule (4h) % inh a 1 mg/Kg,[1],100%
"CCOCCn1cc(C2CCN(Cc3ccc(OC)c(C(=O)O)c3)CC2)c2ccc(F)cc21 [Example 4, 5-{4-[1-(2-ethoxyethyl)-6-fluoro-1H-indol-3-yl]piperidin-1-ylmethyl}-2-methoxybenzoic acid]",IC50,histamine-H1 receptors,160 nM
same,IC50,serotonin-5HT2 receptors,4300 nM
same,papule (4h) % inh a 1 mg/Kg,[1],89%
"COCCn1cc(C2CCN(Cc3ccc(OC)c(C(=O)O)c3)CC2)c2ccc(F)cc21 [Example 5, 5-{4-[6-fluoro-1-(2-methoxyethyl)-1H-indol-3-yl]piperidin-1-ylmethyl}-2-methoxybenzoic acid]",IC50,histamine-H1 receptors,245 nM
same,IC50,serotonin-5HT2 receptors,> 10000 nM
same,papule (4h) % inh a 1 mg/Kg,[1],96%
